Data: PMC10419174, “WR1065 conjugated to thiol-PEG polymers as novel anticancer prodrugs: broad spectrum efficacy, synergism, and drug resistance reversal” (Frontiers in Oncology, 2023)
Where “and” joins values, the source holds several entries; their conditions need not be identical. Equal entries are not always repeated. Where two headings read alike, the source gives them in different places. Marks after values point to notes of the source that are not given here.

Assays:
[1] = system: Strain-2 and Strain-3 NHMECs; format: cell-based; conditions: for cell growth, % of control cell values: 500 µM
Text: (§1) Normal human mammary epithelial cell (NHMEC) strains used to assess potential cytotoxicity of 4SP65 and 1LP65 were established from reduction mammoplasty tissue from a healthy donor (M99005 or ‘Strain-1’) ([53]) or purchased from ATCC (Manassas, VA, USA; batch#70043304 or ‘Strain-2’) or Cell Applications (San Diego, CA, USA; lot#1669 or ‘Strain-3’). Human cancer cell lines including HCC38, MDA-MB-231, A549, National Cancer Institute (NCI)-H460, NCI-H1437, NCI-H1975, DU145, LNCaP, PC3, PANC1, SKOV3, and HL60, which were free of Mycoplasma, were purchased from ATCC. HMESO1, PPMMill, and TOV21G cells, obtained from Dr. Brian Cunniff, were verified to be Mycoplasma negative using the LookOut® Mycoplasma PCR Detection Kit (Sigma-Aldrich) and to match previously annotated DNA fingerprints by the Vermont Integrative Genomics Resource DNA Analysis Facility.
(§2) To assess the effects of 4SP65 or 1LP65 on the growth of normal epithelium, experiments were performed using NHMEC strains from differing donors ([53]). Strain-1 NHMECs were plated at 5,000 cells/well in 24-well plates and allowed to reach 50% confluence before treatment with 0-150 µM 4SP65 for 48 h. Cell viability was determined using a hemocytometer and trypan blue exclusion assay. Two other NHMEC strains, exposed to 0-150 µM 4SP65 or 0-500 µM 1LP65 for 48 h, were handled in the same fashion except that viability of cells in 96-well plates was determined using CyQUANT dye. Due to the short life span of these NHMECs, standard curves were not generated and fluorescence readings were used as a surrogate marker of cell number ([54]).

Strain-1 NHMECs (M99005) = experiment: NHMEC growth, trypan blue exclusion, 48-h treatment; format: cell-based, human
Text: as §1, §2

NCI-H460 NSCLC cells = conditions: for Fold increase in efficacy: drug alone ÷ drug in 4SP65-DDP combination
Text: To test anticancer effectiveness of individual drugs or drug combinations, the CyQUANT®-NF proliferation assay was used with a plate reader (i) to generate standard curves for cell numbers for each cell line, (ii) to measure the starting cell numbers at initiation of drug treatment, and (iii) to obtain fluorescence readings from cells in 96-well plates for comparisons to a standard curve for the relevant cancer cell line and quantifying cell viability after drug treatments. […] Trypan blue exclusion was used to estimate cell numbers in a few pilot experiments and thereafter was applied to confirm very low viable cell numbers and cell death.
A series of experiments was conducted to determine the relative efficacy of 4SP65, 1LP65, and amifostine as single agents in the same human cancer cell lines.
Five metrics were calculated and used to characterize the shape of the dose-response curve following exposure to a single test agent. Using cell numbers based on fluorescence measurements and standard curves, the percentage growth was calculated at each drug concentration level. The percentage of growth inhibition was calculated as follows:
where Tz = cell numbers or fluorescence counts at time xero, C = vehicle-exposed control cell numbers at the end of the assessment time period, and Ti = test agent-exposed cell numbers or fluorescence counts at each drug concentration. […] The LC50/99 was calculated using Equation 2 = -50 and Eq. 2 = -99, respectively. […] For NHMECs, the relationships between drug exposure levels and fluorescence units were used to define dose-response metrics. The selectivity index values for individual drugs were calculated using IC50 levels in NHMECs divided by the IC50 value for each cancer cell line. Statistical comparisons of differences in individual dose-response metrics between drug treatments and cell lines were conducted using Student’s t-test, with P-values <0.05 considered significant.
Relative cell growth inhibition values for differing levels of each drug alone and in combination were input into SynergyFinder to generate dose-response curves for each drug alone and to produce a dose-response matrix. The dose-response matrix data then were used in generating a two-dimension heatmap and three-dimension volcano plot to visualize the distribution of areas of differing degrees of synergism and to calculate average and maximum synergy scores in selected human cancer cell lines. The expected drug combination responses were calculated using both the Highest Single Agent (HSA) model and the Zero interaction potency (ZIP) model.

NCI-H1437 NSCLC cells = system: NCI-H1437 NSCLC cells
Protocol: (§3) The percentage of growth inhibition was calculated as follows: […]

[2] = system: Promyelocytic HL-60 leukemia cells; format: cell-based
Protocol: as §3

[3] = Solubility, storage and stability of 4SP65 and 1LP65; format: physicochemical
Protocol: prepared for use and that was not altered by the solvent used, heating up to 37 °C for up to 3 days, and shaking or rocking for up to 3 days at RT or 4°C. For experiment, an aliquot of drug was first mixed in medium, the solvent was removed and saved, and gel pieces were recovered, dried on a vacuum pump, […]
The difference in the starting weight of drug placed into solvent minus the weight of the residue after drying on a vacuum pump was considered to represent the amount of drug that went into solution. The amount of drug that was dissolved at a given time ranged from 40 to 61%, averaging 50.7 ± 8.1% (SD). The weight of the 4SP65 in solution was then used for diluting the drug to concentrations of 200 or 400 µM in supplemented RPMI or DMEM/F12 medium for routine treatment of cells. The dried residue was not used in the in vitro drug efficacy studies. The formation of a gel in the aqueous solvents tested was unexpected since […]
few free thiols in polymer arms of the PEG scaffold for cross-linking reactions to occur. However, unintended topical entanglements between polymer chains of multi-arm PEG-thiol molecules without disulfide formation have been reported (Tang and Bradley 2014 24860800). Aliquots of 4SP65 dissolved in FBS enriched medium has remained stable for >6 months while remnants of the original viscous polymer have maintained stability without any apparent loss of activity when stored for 60 […]
However, the bulk of the product was dissolved at 40 mM in DMSO and stored in aliquots at −80°C for future use once by further dilution in DMSO and then final dilution in medium for treatment of normal human epithelium and human cancer cell lines at working solutions of 4 mM or 400 µM drug. 1LP65 has maintained stability for six months in frozen aliquots but should be stable in DMSO at −80°C for two to three years based upon recommended storage conditions for cystamine dihydrochloride (Selleck Chemical product information), an analogous 225 Da compound with a disulfide bond and amine groups like 1LP65. […]

[4] = Prodrug stability in culture medium with alamarBlue, cell free, 72 h; format: in vitro ADME; conditions: standard growth medium, 37°C
Protocol: To determine drug stability in tissue culture medium for short-term treatments, 4SP65 was added to medium containing alamarBlue reagent in 96-well plates and incubated in the absence of cells at 37°C for 72 h. After this incubation period, wells with medium containing alamarBlue alone or both alamarBlue and 4SP65 were assessed for fluorescence readings using a Tecan Infinite 200 PRO plate reader (San Jose, CA, USA).

Pancreas PANC-1 cells = experiment: cells
Protocol: as §3

[5] = system: Malignant pleural mesothelioma PPMMill cells; experiment: cells; conditions: for Fold increase in efficacy: drug alone ÷ drug in 4SP65-DDP combination
Protocol: as §3

[6] = Strain-2 NHMECs, 48 h, read-out: IC50
[7] = Strain-3 NHMECs, 48 h, read-out: IC50
[8] = 48-h treatment, amifostine ND = not definable up to 500 µM
[9] = drug alone, 48 h, 4SP65/cisplatin study
[10] = drug alone, 48 h, 4SP65/cisplatin study, ND = not definable, highest concentration in parentheses
[11] = aqueous solvents/medium, remainder formed a gel
[12] = read-out: LC50, 48-h treatment, amifostine ND = not definable up to 500 µM

With 4-star-PEG-S-S-WR1065 [4SP65] the IC50 [1, 6] was > 150 µM, the growth enhancement ([1]; Strain-2 and Strain-3 cells, 3 µM, 48 h) was 162% ± 7% and the “growth relative to control cells” value ([1]; Strain-2 and Strain-3 cells, 9 µM, 48 h) was 78% ± 12%. For the same compound, the “growth relative to control cells” value ([1]; Strain-2 and Strain-3 cells, 30 µM, 48 h) was 52% ± 8%, the “growth relative to control cells” value ([1]; Strain-2 and Strain-3 cells, 90 µM, 48 h) was 21% ± 4% and the “growth relative to control cells” value ([1]; Strain-2 and Strain-3 cells, 150 µM, 48 h) was 8.7% ± 2%. For the same compound, the IC50 [1, 7] was 76 ± 14 µM, the IC50 (Strain-1 NHMECs (M99005); Strain-1 NHMECs) was > 150 µM and the “growth enhancement compared to sham-exposed control cells” value (Strain-1 NHMECs (M99005); Strain-1 cells, 5 µM) was 336%. For the same compound, the “growth enhancement compared to sham-exposed control cells” value (Strain-1 NHMECs (M99005); Strain-1 cells, 15 µM) was 286%, the “growth as % of the control cell growth” value (Strain-1 NHMECs (M99005); Strain-1 cells, 50 µM) was 68% and the growth pattern (Strain-1 NHMECs (M99005); Strain-1 cells, 150 µM) was “growth enhancement”. The GI50 (NCI-H460 NSCLC cells; [8]) was 9.4 ± 1.5 µM, the IC50 (NCI-H460 NSCLC cells; [8]) was 10.7 ± 1.3 µM and the LC99 (NCI-H460 NSCLC cells; [8]) was 17.7 ± 0.8 µM. For the same compound, the TGI (NCI-H460 NSCLC cells; [8]) was 14.1 ± 1.5 µM and 14.1 µM, the “Dose reduction value 1LP65 ÷ 4SP65” value (NCI-H460 NSCLC cells; at GI50) was 8.3 fold and the “Dose reduction value 1LP65 ÷ 4SP65” value (NCI-H460 NSCLC cells; at IC50) was 8.4 fold. For the same compound, the “Dose reduction value 1LP65 ÷ 4SP65” value (NCI-H460 NSCLC cells; at LC50) was 9.5 fold, the “Dose reduction value 1LP65 ÷ 4SP65” value (NCI-H460 NSCLC cells; at LC99) was 10 fold and the “Dose reduction value 1LP65 ÷ 4SP65” value (NCI-H460 NSCLC cells; at TGI) was 8.8 fold. For the same compound, the “Fold increase in efficacy” value (NCI-H460 NSCLC cells; at GI50) was 36 fold, the “Fold increase in efficacy” value (NCI-H460 NSCLC cells; at IC50) was 20** fold and the “Fold increase in efficacy” value (NCI-H460 NSCLC cells; at LC50, GoE = gain of effect) was 5.3^c fold. The “Fold increase in efficacy” value (NCI-H460 NSCLC cells; at LC99, GoE = gain of effect) was 4.3^c fold, the “Fold increase in efficacy” value (NCI-H460 NSCLC cells; at TGI, GoE = gain of effect) was 7.4^c fold and the GI50 (NCI-H460 NSCLC cells; [9]) was 12.3 ± 1.1 µM. For the same compound, the IC50 (NCI-H460 NSCLC cells; [9]) was 13.3 ± 1 µM, the LC99 (NCI-H460 NSCLC cells; [10]) was 18.2 ± 0.4 µM and the TGI (NCI-H460 NSCLC cells; [10]) was 16.9 ± 0.6 µM. For the same compound, the CC50 (NCI-H1437 NSCLC cells) was 19.6 ± 0.7 µM, the GI50 (NCI-H1437 NSCLC cells; [8]) was 10.6 ± 2 µM and the IC50 (NCI-H1437 NSCLC cells; [8]) was 12.5 ± 2.6 µM. The LC99 (NCI-H1437 NSCLC cells; [8]) was 21.1 ± 0.2 µM, the TGI (NCI-H1437 NSCLC cells; [8]) was 16.3 ± 1.9 µM and the “Dose reduction value 1LP65 ÷ 4SP65” value (NCI-H1437 NSCLC cells; at GI50) was 6.5 fold. For the same compound, the “Dose reduction value 1LP65 ÷ 4SP65” value (NCI-H1437 NSCLC cells; at IC50) was 6.0 fold, the “Dose reduction value 1LP65 ÷ 4SP65” value (NCI-H1437 NSCLC cells; at LC50) was 8.0 fold and the “Dose reduction value 1LP65 ÷ 4SP65” value (NCI-H1437 NSCLC cells; at LC99) was 11 fold. The “Dose reduction value 1LP65 ÷ 4SP65” value (NCI-H1437 NSCLC cells; at TGI) was 6.3 fold, the CC50 [2] was 7.5 ± 2.1 µM and the GI50 ([2]; 48-h treatment) was 1.9 ± 0.6 µM. For the same compound, the IC50 ([2]; 48-h treatment) was 4.4 ± 0.9 µM, the LC99 ([2]; 48-h treatment) was 10.2 ± 3.4 µM and the TGI ([2]; 48-h treatment) was 4.7 ± 0.7 µM and 4.7 µM. For the same compound, the “highest level testable based upon maximum solubility in aqueous medium” value [3] was 150 µM, the “storage time with maintained stability without apparent loss of activity” value [3] was 60 months and the time remained stable ([3]; aliquots dissolved in FBS enriched medium) was > 6 months. The “amount of drug dissolved at a given time, average (SD)” value [3, 11] was 50.7 ± 8.1%, the “amount of drug dissolved at a given time, range” value [3, 11] was 40 to 61% and the “change in fluorescence of alamarBlue reagent versus control wells” value [4] was “no significant change”. For the same compound, the CC50 (Pancreas PANC-1 cells) was 5 ± 0.3 µM, the GI50 (Pancreas PANC-1 cells; [8]) was 2.8 ± 0.6 µM and the IC50 (Pancreas PANC-1 cells; [8]) was 3.7 ± 0.6 µM. The LC99 (Pancreas PANC-1 cells; [8]) was 7.0 ± 0.5 µM, the TGI (Pancreas PANC-1 cells; [8]) was 4.0 ± 0.4 µM and the “Dose reduction value AMF ÷ 4SP65” value (Pancreas PANC-1 cells; at GI50) was 39 fold. It also gave a GI50 [5, 8] of 6 ± 1.7 µM, an IC50 [5, 8] of 7.4 ± 2 µM and an LC99 [5, 8] of 14.8 ± 2.9 µM. For the same compound, the TGI [5, 8] was 10.6 ± 3.0 µM, the “Fold increase in efficacy” value ([5]; at GI50) was 1.3 (NS) fold and the “Fold increase in efficacy” value ([5]; at IC50) was 1.3 (NS) fold. For the same compound, the “Fold increase in efficacy” value ([5]; at LC50, GoE = gain of effect) was 1.3 (NS) fold, the “Fold increase in efficacy” value ([5]; at LC99, GoE = gain of effect) was 1.3 (NS) fold and the “Fold increase in efficacy” value ([5]; at TGI, GoE = gain of effect) was 1.3 (NS) fold. The GI50 [5, 9] was 8.4 ± 1.5 µM, the IC50 [5, 9] was 10 ± 1.9 µM and the LC99 [5, 10] was 17.6 ± 3.5 µM. It also gave a TGI [5, 10] of 14.1 ± 3.3 µM.
In the case of `COCCOCCOCCOCCOCCOCCSSCCNCCCN.O=C(O)C(F)(F)F.O=C(O)C(F)(F)F` [1LP65, m-PEG6-S-S-WR1065], the IC50 [1, 6] is reported as > 500 µM, the IC50 ([1]; Strain-2 and Strain-3, read-out: average IC50 for the two normal cell strains) is reported as > 355 µM and the “cell growth, % of control cell values” ([1]; Strain-2 cells, 48 h) is reported as 19.5%. The IC50 [1, 7] was 210 µM, the “cell growth, % of control cell values” ([1]; Strain-3 cells, 48 h) was 12.5% and the GI50 (NCI-H460 NSCLC cells; [8]) was 77.7 ± 15 µM. The IC50 (NCI-H460 NSCLC cells; [8]) was 90.1 ± 16.6 µM, the LC99 (NCI-H460 NSCLC cells; [8]) was 182 ± 6.7 µM and the TGI (NCI-H460 NSCLC cells; [8]) was 124 ± 13.3 µM and 124 µM. It also gave a CC50 (NCI-H460 NSCLC cells; [12]) of 155 ± 5.1 µM, a GI50 (NCI-H1437 NSCLC cells; [8]) of 66.2 ± 4.2 µM and an IC50 (NCI-H1437 NSCLC cells; [8]) of 74.8 ± 2.1 µM. For the same compound, the LC99 (NCI-H1437 NSCLC cells; [8]) was 234 ± 16 µM, the TGI (NCI-H1437 NSCLC cells; [8]) was 109 ± 17 µM and the CC50 (NCI-H1437 NSCLC cells; [12]) was 157 ± 14 µM. For the same compound, the solubility [3] was “soluble 100% DMSO or aqueous solution” and the “time of maintained stability” value ([3]; frozen aliquots in DMSO at −80°C) was “six”.
